In patent publication US11696917B2, “Agent enhancing antitumor effect using pyrazolo[3,4-d]pyrimidine compound” (TAIHO PHARMACEUTICAL CO., LTD., priority 2017, dated 2023):

How the values were obtained:
[1] = system: Human stomach cancer cells 4-1st; assay: Combination of Compound 1 and trastuzumab (in vivo), subcutaneous tumor in nude mice; set-up: species or system nude mouse (BALB/cAJcl-nu/nu); conditions: for T/C (%): Day 15; for BWC (%) Day 15 Mean: mouse, in vivo, po
[2] = system: Human stomach cancer cells 4-1st; assay: Combination of Compound 1 and trastuzumab emtansine (in vivo), subcutaneous tumor in nude mice; conditions: for T/C (%): Day 15; for BWC (%) Day 15 Mean: mouse, in vivo, po
Source text: Human stomach cancer cells 4-1st were obtained as fragment tumor from the Central Institute for Experimental Animals. Tumor was excised approximately one month after subcutaneous transplantation and passage in a nude mouse (BALB/cAJcl-nu/nu, CLEA Japan, Inc.), and prepared into a fragment of approximately 2 mm square. A transplantation needle was packed with one fragment and subcutaneously inserted from around the right most distal rib of a nude mouse. After entrance to the right back, the inner cylinder was pushed to eject and transplant the tumor. Electronic calipers were used in tumor size measurement, and the major axis and the minor axis of the tumor of each mouse were measured by sandwiching the tumor between the measuring surfaces of the electronic calipers (Days 0, 4, 8, 11 and 15). A tumor volume (TV) was calculated from the major axis and the minor axis. A relative tumor volume (RTV) and a rate of change in relative tumor volume (T/C) were calculated from the calculated tumor volume. TV, RTV, and T/C were calculated according to the following expressions. Tumor volume TV (mm^3)=(Major axis, mm)×(Minor axis, mm)×(Minor axis, mm)/2 Relative tumor volume RTV=(TV on the day of measurement)/(TV on the day of grouping) Rate of change in relative tumor volume T/C (%)=(Average RTV of an administration group)/(Average RTV of a control group)×100
An electronic balance for animals was used in body weight measurement. A rate of change in body weight on day n (BWCn) was calculated from the body weight on day n (BWn) according to the following expression. Rate of change in body weight BWCn (%)=(BWn−BW0)/BW0×100
Nude mice whose TV reached 100 to 300 mm^3 were selected, and six animals were assigned to each group by the equal number method (MiSTAT (ver. 2.0)) such that average TV was equalized among groups.
The presence or absence of an effect of combined use and toxicity were determined from tumor sizes and body weights on the day of grouping (Day 0) and the day of evaluation (Day 15). During the administration period, the body weights were measured every day for the calculation of the amount of a dosing solution.

[3] = system: human stomach cancer cell line NCI-N87; assay: Combination of Compound 1 and capecitabine (in vivo), subcutaneous tumor in nude mice; set-up: species or system nude mouse (BALB/cAJcl-nu/nu); conditions: for T/C (%): Day 15
Experimental: A human stomach cancer cell line NCI-N87 was obtained from American Type Culture Collection (ATCC). The cell line was cultured at 37° C. in a 5% CO2 incubator using RPMI-1640 (containing 4.5 g/L glucose, 10 mM HEPES, and 1 mM sodium pyruvate) (Wako Pure Chemical Industries, Ltd.) medium containing 10% fetal bovine serum (FBS).
The NCI-N87 cells were resuspended at a concentration of 8×10^7 cells/mL in PBS.
The cell suspension was subcutaneously transplanted in an amount of 8×10^6 cells/0.1 mL to the right chest of a 6-week-old nude mouse (BALB/cAJcl-nu/nu, CLEA Japan, Inc.) using a 1 mL syringe for tuberculin and a 25 G injection needle.
Electronic calipers were used in tumor size measurement.

[4] = Compound 1 7.5 mg/kg/day p.o. Days 1-14
[5] = Compound 1 15 mg/kg/day p.o. Days 1-14
[6] = Compound 1 30 mg/kg/day p.o. Days 1-14

Question: `C=CC(=O)N1CCC[C@@H](n2nc(C(=O)Nc3ccc(CC(=O)N(C)C)c(C)c3C)c3c(N)ncnc32)C1` [Compound 1, (R)-1-(1-acryloylpiperidin-3-yl)-4-amino-N-(4-(2-(dimethylamino)-2-oxoethyl)-2,3-dimethylphenyl)-1H-pyrazolo[3,4-d]pyrimidine-3-carboxamide] was tested. Which “RTV Day 15 Mean + SD” value [1, 4] did it give?
Answer: 6.55 ± 0.37

Question: And the “T/C (%)” value [1, 4]?
Answer: 49.0%

Question: What about the “RTV Day 15 Mean + SD” value [1, 5] of the same compound?
Answer: 3.77 ± 0.32

Question: What about the “T/C (%)” value [1, 5] of the same compound?
Answer: 28.2%

Question: And the “BWC (%) Day 15 Mean” value ([1]; 7.5 mg/kg/day)?
Answer: 5.06%

Question: And the “BWC (%) Day 15 Mean” value ([1]; 15 mg/kg/day)?
Answer: 0.82%

Question: What about the “RTV Day 15 Mean ± SD” value [2, 4] of the same compound?
Answer: 5.92 ± 0.38

Question: What about the “T/C (%)” value [2, 4] of the same compound?
Answer: 51.6%

Question: What about the “RTV Day 15 Mean ± SD” value [2, 5] of the same compound?
Answer: 3.58 ± 0.41

Question: What about the “T/C (%)” value [2, 5] of the same compound?
Answer: 31.2%

Question: And the “BWC (%) Day 15 Mean” value ([2]; 7.5 mg/kg/day)?
Answer: 7.41%

Question: And the “BWC (%) Day 15 Mean” value ([2]; 15 mg/kg/day)?
Answer: 3.63%

Question: What about the “BWC (%) Day 15 Mean” value [3, 5] of the same compound?
Answer: 8.35%

Question: What about the “RTV Day 15 Mean ± SD” value [3, 5] of the same compound?
Answer: 1.69 ± 0.39

Question: And the “T/C (%)” value [3, 5]?
Answer: 40.8%

Question: And the “BWC (%) Day 15 Mean” value [3, 6]?
Answer: 6.43%

Question: What about the “RTV Day 15 Mean ± SD” value [3, 6] of the same compound?
Answer: 0.67 ± 0.15

Question: And the “T/C (%)” value [3, 6]?
Answer: 16.3%
